Data as given in patent US10364256B2 (GlaxoSmithKline Intellectual Property Development Limited, priority 2015, dated 2019).

Experiments:
[1] = target: T1, Keap1 Kelch domain (321-609) / TAMRA-labeled 16mer NRF2 peptide (ETGE motif) (Homo sapiens, UniProt Q14145); assay: NRF2-Keap1 FP Assay (Keap1 Kelch fluorescence polarization); format: binding; details: 20 nM Keap1 (321-609), 8 nM Tamra labeled peptide
T1 construct: the Kelch domain (321-609) of Keap1 is used
Method in brief: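 Compound dilutions (3-fold) were incubated 1 hr at room temperature with 20 nM Keap1 Kelch (321-609) and 8 nM TAMRA-labeled ETGE 16mer peptide. Buffer was 50 mM Tris pH 8.0, 100 mM NaCl, 5 mM MgCl2, 1 mM DTT, 2 mM CHAPS, 0.005% BSA. Fluorescence polarization (mP) was normalized to controls and fitted with a four-parameter equation to give pIC50.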

[2] = target: T2, full length Keap1 protein / full length NRF2 protein (Homo sapiens, UniProt Q14145); assay: NRF2-Keap1 TR-FRET Assay; format: binding; details: 25 nM Keap1-FlagHis and 50 nM biotin-NRF2 added
T2 construct: full length NRF2 protein and full length Keap1 protein (Keap1 exists a dimer) are used; His
Method in brief: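 Displacement of biotinylated full-length NRF2 from full-length Keap1 read by Eu/APC TR-FRET (665/615 nm) after 1 h detection at RT. Compound, 3-fold series, first incubated with Keap1 at 37 °C for 2.25 h, NRF2 then added at 4 °C for 1.25 h; pIC50 by four-parameter equation.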

T2 sequence (Q14145 whole entry): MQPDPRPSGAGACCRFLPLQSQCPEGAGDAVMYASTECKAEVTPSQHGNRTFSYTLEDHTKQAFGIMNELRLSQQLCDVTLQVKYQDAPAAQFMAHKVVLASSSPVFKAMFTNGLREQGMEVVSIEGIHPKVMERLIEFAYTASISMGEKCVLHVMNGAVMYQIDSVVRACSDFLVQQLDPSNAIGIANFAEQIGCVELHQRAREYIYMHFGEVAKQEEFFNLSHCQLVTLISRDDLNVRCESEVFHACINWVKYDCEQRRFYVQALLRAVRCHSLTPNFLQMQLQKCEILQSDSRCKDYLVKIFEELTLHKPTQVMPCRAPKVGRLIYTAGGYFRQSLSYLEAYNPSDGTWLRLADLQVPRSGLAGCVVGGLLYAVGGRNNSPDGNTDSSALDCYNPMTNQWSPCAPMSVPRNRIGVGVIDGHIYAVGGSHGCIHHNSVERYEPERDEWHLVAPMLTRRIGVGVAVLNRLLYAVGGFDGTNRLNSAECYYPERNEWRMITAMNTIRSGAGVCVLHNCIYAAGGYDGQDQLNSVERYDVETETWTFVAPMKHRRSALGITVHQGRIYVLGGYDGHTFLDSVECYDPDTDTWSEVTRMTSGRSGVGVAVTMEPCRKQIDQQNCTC
T1 sequence (Q14145 321-609): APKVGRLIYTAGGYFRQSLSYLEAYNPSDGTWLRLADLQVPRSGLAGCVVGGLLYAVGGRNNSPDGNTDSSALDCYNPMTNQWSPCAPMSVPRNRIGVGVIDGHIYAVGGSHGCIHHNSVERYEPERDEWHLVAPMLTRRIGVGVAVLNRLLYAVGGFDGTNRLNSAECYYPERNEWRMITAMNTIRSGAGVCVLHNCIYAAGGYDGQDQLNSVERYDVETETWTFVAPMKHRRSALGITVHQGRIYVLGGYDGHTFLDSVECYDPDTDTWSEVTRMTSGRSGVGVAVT

Compound	IC50 [1]	IC50 [2]
C[C@@H]1CN(Cc2cccc(-c3cccc(-n4ncc(C(=O)O)c4[C@@H]4C[C@H]4c4cn(C)nn4)c3)c2)Cc2ccccc2O1 [Example 253]	10 to 100 nM	100 to 1000 nM
1-(3′-((2-chlorocyclohexyl)methoxy)-[1,1′-biphenyl]-3-yl)-5-((1,2-trans)-2-(1-methyl-1H-1,2,3-triazol-4-yl)cyclopropyl)-1H-pyrazole-4-carboxylic acid [Example 186]	100 to 1000 nM	100 to 1000 nM
CC1(C)CCc2cnn(-c3cccc(-c4cccc(-n5ncc(C(=O)O)c5C(F)(F)F)c4)c3)c21 [Example 250, 1-(3′-(6,6-Dimethyl-5,6-dihydrocyclopenta[c]pyrazol-1(4H)-yl)-[1,1′-biphenyl]-3-yl)-5-(trifluoromethyl)-1H-pyrazole-4-carboxylic Acid]	100 to 1000 nM	10000 to 100000 nM
CCCC1CCCCN1C(=O)c1cccc(-c2cccc(-n3ncc(C(=O)O)c3C3CC3)c2)c1F (stereo in doubt) [Example 54d, 5-Cyclopropyl-1-{3-[2-fluoro-3-((2R)-2-propylpiperidine-1-carbonyl)phenyl]phenyl}-1H-pyrazole-4-carboxylic Acid]	10 to 100 nM	1000 to 10000 nM
O=C(O)c1cnn(-c2cccc(-c3cccc(C(=O)N(CC4CC4)CC4CC4)c3F)c2)c1C1CC1 [Example 8, 1-(3-{3-[Bis(cyclopropylmethyl)carbamoyl]-2-fluorophenyl}phenyl)-5-cyclopropyl-1H-pyrazole-4-carboxylic Acid]	10 to 100 nM	100 to 1000 nM
Cn1cc([C@@H]2C[C@H]2c2c(C(=O)O)cnn2-c2cccc(-c3cccc(CN4Cc5ccccc5OC(C)(C)C4)c3)c2)nn1 (racemic) [Example 254, 1-(3′-((2,2-Dimethyl-2,3-dihydrobenzo[f][1,4]oxazepin-4(5H)-yl)methyl)-[1,1′-biphenyl]-3-yl)-5-(trans-2-(1-methyl-1H-1,2,3-triazol-4-yl)cyclopropyl)-1H-pyrazole-4-carboxylic Acid]	10 to 100 nM	100 to 1000 nM
O=C(O)c1cnn(-c2cccc(-c3cccc(C(=O)N4CCCCC4C4CCCC4)c3F)c2)c1C1CC1 (stereo not shown) [Example 33, 1-{3-[3-(2-Cyclopentylpiperidine-1-carbonyl)-2-fluorophenyl]phenyl}-5-cyclopropyl-1H-pyrazole-4-carboxylic Acid]	10 to 100 nM	100 to 1000 nM
CCC[C@@H]1CCCCN1C(=O)c1cccc(-c2cccc(-n3ncc(C(=O)O)c3C3CC3)c2)c1F [Example 54e, 5-Cyclopropyl-1-{3-[2-fluoro-3-((2-S)-2-propylpiperidine-1-carbonyl)phenyl]phenyl}-1H-pyrazole-4-carboxylic Acid]	100 to 1000 nM	1000 to 10000 nM
CCC[C@@H]1CCCCN1C(=O)c1cccc(-c2cccc(-n3ncc(C(=O)O)c3CCc3cn(C)nn3)c2)c1F [Example 55, (R)-1-(2′-Fluoro-3′-(2-propylpiperidine-1-carbonyl)-[1,1′-biphenyl]-3-yl)-5-(2-(1-methyl-1H-1,2,3-triazol-4-yl)ethyl)-1H-pyrazole-4-carboxylic Acid]	10 to 100 nM	10 to 100 nM
Cn1cc([C@@H]2C[C@H]2c2c(C(=O)O)cnn2-c2cccc(-c3cccc(-n4ncc5c4C(C)(C)CC5)c3)n2)nn1 (racemic) [Example 251, 1-(6-(3-(6,6-Dimethyl-5,6-dihydrocyclopenta[c]pyrazol-1(4H)-yl)phenyl)pyridin-2-yl)-5-(trans-2-(1-methyl-1H-1,2,3-triazol-4-yl)cyclopropyl)-1H-pyrazole-4-carboxylic Acid]	10 to 100 nM	10 to 100 nM
O=C(O)c1cnn(-c2cccc(-c3cccc(C(=O)N4CCCCC4CCC(F)(F)F)c3F)c2)c1C1CC1 (stereo not shown) [Example 38, 5-Cyclopropyl-1-(3-{2-fluoro-3-[2-(3,3,3-trifluoropropyl)piperidine-1-carbonyl]phenyl}phenyl)-1H-pyrazole-4-carboxylic Acid]	10 to 100 nM	100 to 1000 nM
CC1CCC(C)N(C(=O)c2cccc(-c3cccc(-n4ncc(C(=O)O)c4C4CC4)c3)c2F)C1 (stereo not shown) [Example 30, 5-Cyclopropyl-1-{3-[3-(2,5-dimethylpiperidine-1-carbonyl)-2-fluorophenyl]phenyl}-1H-pyrazole-4-carboxylic Acid]	10 to 100 nM	1000 to 10000 nM
CCC1Cc2ccccc2CN(Cc2cccc(-c3cccc(-n4ncc(C(=O)O)c4[C@@H]4C[C@H]4c4cn(C)nn4)c3)c2)C1 (relative stereo) [Example 252, 1-(3′-((4-Ethyl-4,5-dihydro-1H-benzo[c]azepin-2(3H)-yl)methyl)-[1,1′-biphenyl]-3-yl)-5-(trans-2-(1-methyl-1H-1,2,3-triazol-4-yl)cyclopropyl)-1H-pyrazole-4-carboxylic Acid]	10 to 100 nM	100 to 1000 nM
O=C(O)c1cnn(-c2cccc(-c3cccc(C(=O)N4CCCC5CCCCC54)c3F)c2)c1C1CC1 (stereo not shown) [Example 31, 5-Cyclopropyl-1-{3-[3-(decahydroquinoline-1-carbonyl)-2-fluorophenyl]phenyl}-1H-pyrazole-4-carboxylic Acid]	100 to 1000 nM	1000 to 10000 nM
CC(Oc1cccc(-c2cccc(-n3ncc(C(=O)O)c3[C@@H]3C[C@H]3c3cn(C)nn3)n2)c1)C1CCCCC1 (relative stereo) [Example 249, 1-(6-(3-(1-Cyclohexylethoxy)phenyl)pyridin-2-yl)-5-(trans-2-(1-methyl-1H-1,2,3-triazol-4-yl)cyclopropyl)-1H-pyrazole-4-carboxylic Acid]	10 to 100 nM	10 to 100 nM
CC(C)CC1CCCCN1C(=O)c1cccc(-c2cccc(-n3ncc(C(=O)O)c3C3CC3)c2)c1F (stereo not shown) [Example 28, 5-Cyclopropyl-1-(3-{2-fluoro-3-[2-(2-methylpropyl)piperidine-1-carbonyl]phenyl}phenyl)-1H-pyrazole-4-carboxylic Acid]	10 to 100 nM	100 to 1000 nM
O=C(O)c1cnn(-c2cccc(-c3cccc(C(=O)N4CCCC5(CCCC5)C4)c3F)c2)c1C1CC1 [Example 35, 1-[3-(3-{7-Azaspiro[4.5]decane-7-carbonyl}-2-fluorophenyl)phenyl]-5-cyclopropyl-1H-pyrazole-4-carboxylic Acid]	10 to 100 nM	100 to 1000 nM

The next lines start with the values.

IC50 [1]	IC50 [2]	Compound
10 to 100 nM	10 to 100 nM	CC(C)CN(C)C(=O)c1cccc(-c2cccc(-n3ncc(C(=O)O)c3[C@@H]3C[C@H]3c3cn(C)nn3)c2)c1F (racemic) [Example 266, 1-(2′-Fluoro-3′(isobutyl(methyl)carbamoyl)-[1,1′-biphenyl]-3-yl)-5-(trans-2-(1-methyl-1H-1,2,3-triazol-4-yl)cyclopropyl)-1H-pyrazole-4-carboxylic Acid]
100 to 1000 nM	100 to 1000 nM	CC(C)Oc1cccc(-c2cccc(-n3ncc(C(=O)O)c3C3CC3c3cn(C)nn3)c2)c1 (stereo not shown) [Example 59, 1-(3′-Isopropoxy-[1,1′-biphenyl]-3-yl)-5-(2-(1-methyl-1H-1,2,3-triazol-4-yl)cyclopropyl)-1H-pyrazole-4-carboxylic Acid]
10 to 100 nM	10 to 100 nM	CCOC[C@H]1CCCN1C(=O)c1cccc(-c2cccc(-n3ncc(C(=O)O)c3[C@@H]3C[C@H]3c3cn(C)nn3)c2)c1F [Example 268]
10 to 100 nM	10 to 100 nM	CC1CC(C)CN(C(=O)c2cccc(-c3cccc(-n4ncc(C(=O)O)c4[C@@H]4C[C@H]4c4cn(C)nn4)c3)c2F)C1 (mixture of isomers) [Example 263, 1-(3′-(3,5-Dimethylpiperidine-1-carbonyl)-2′-fluoro-[1,1′-biphenyl]-3-yl)-5-(2-(1-methyl-1H-1,2,3-triazol-4-yl)cyclopropyl)-1H-pyrazole-4-carboxylic Acid]
10 to 100 nM	10 to 100 nM	Cn1cc([C@H]2C[C@@H]2c2c(C(=O)O)cnn2-c2cccc(-c3cccc(C(=O)N4CCCCC4)c3F)c2)nn1 (racemic) [Example 258, 1-(2′-Fluoro-3′-(piperidine-1-carbonyl)-[1,1′-biphenyl]-3-yl)-5-(trans-2-(1-methyl-1H-1,2,3-triazol-4-yl)cyclopropyl)-1H-pyrazole-4-carboxylic Acid]
10 to 100 nM	10 to 100 nM	Cn1cc([C@H]2C[C@@H]2c2c(C(=O)O)cnn2-c2cccc(-c3cccc(C(=O)N4CCCCCC4)c3F)c2)nn1 (racemic) [Example 260, 1-(2′-Fluoro-3′-(azepane-1-carbonyl)-[1,1′-biphenyl]-3-yl)-5-(trans-2-(1-methyl-1H-1,2,3-triazol-4-yl)cyclopropyl)-1H-pyrazole-4-carboxylic Acid]
10 to 100 nM	10 to 100 nM	Cn1cc([C@H]2C[C@@H]2c2c(C(=O)O)cnn2-c2cccc(-c3cccc(C(=O)N4CCCC(C)(C)C4)c3F)c2)nn1 (racemic) [Example 259, 1-(2′-Fluoro-3′-(3,3-dimethylpiperidine-1-carbonyl)-[1,1′-biphenyl]-3-yl)-5-(trans-2-(1-methyl-1H-1,2,3-triazol-4-yl)cyclopropyl)-1H-pyrazole-4-carboxylic Acid]
10 to 100 nM	10 to 100 nM	C[C@@H]1CCC[C@H](C)N1C(=O)c1cccc(-c2cccc(-n3ncc(C(=O)O)c3[C@@H]3C[C@H]3c3cn(C)nn3)c2)c1F (single isomer, unassigned) [Example 262]
10 to 100 nM	10 to 100 nM	CCOC[C@@H]1CCCN1C(=O)c1cccc(-c2cccc(-n3ncc(C(=O)O)c3[C@@H]3C[C@H]3c3cn(C)nn3)c2)c1F [Example 267]
